Data on 2 substances can be found in paper PMC7413254 (Nature Communications, 2020).

Common to all, as to type: cell-based
The target in assay [1] is T1, PfCRT^Dd2 (Plasmodium falciparum, UniProt Q9N623, A220S/I356T/K76T/M74I/N326S/N75E/Q271E/R371I). Nature of the assay: [3H]CQ uptake into Xenopus oocytes, cis-inhibition by unlabelled solute. Particulars: PfCRTDd2 oocytes, background [3H]CQ accumulation subtracted, normalised to oocyte type control. The procedure, abridged:
(§1)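 Assay buffer ND96 (10 mM MES, 10 mM Tris-base) held at pH 5.5 to mimic vacuole lumen; uptake measured inward from this acidic medium over 1.5 h at 27.5 °C.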

Assay [2] concerns the target T2, PfCRT^Ecu1110 (Plasmodium falciparum, UniProt Q9N623, A220S/I356L/K76T/N326D). The description is as above. Particulars: for PfCRT-mediated [3H]CQ transport, cis-inhibition (% PfCRTEcu1110 control): PfCRTEcu1110 oocytes, background [3H]CQ accumulation subtracted, normalised to oocyte type control; for [3H]CQ transport (% PfCRTEcu1110 control), cis-inhibition, PfCRTEcu1110: PfCRT-mediated component (background subtracted), sheet title says normalised to PfCRTDd2 control, mean ± SEM, SEM. The procedure, abridged: as §1

The target in assay [3] is T1, PfCRT^Dd2. Nature of the assay: cell-based. Particulars: for PfCRT-mediated [3H]CQ transport, trans-stimulation (% PfCRTDd2 control): PfCRTDd2 oocytes, normalised to oocyte type control; for [3H]CQ transport (% PfCRTDd2 control), trans-stimulation, PfCRTDd2: PfCRT-mediated component (background subtracted), mean ± SEM, SEM. In a few lines:
(§2)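 Transport measured in Xenopus oocytes expressing the transporters, 1.5 h at 27.5 °C in ND96 pH 5.5 unless noted. For trans-stimulation, VF-6 injected in 25 nL ND96 at pH 5.0–7.0 or Na^+-free (choline) buffer; intracellular levels based on ~400 nL oocyte volume. Ten oocytes per treatment, ≥4 experiments.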

In assay [4] the target is T2, PfCRT^Ecu1110. The assay can be described thus: cell-based. To be noted: for PfCRT-mediated [3H]CQ transport, trans-stimulation (% PfCRTEcu1110 control): PfCRTEcu1110 oocytes, normalised to oocyte type control; for [3H]CQ transport (% PfCRTDd2 control), trans-stimulation, PfCRTEcu1110: PfCRT-mediated component (background subtracted), sheet title says normalised to PfCRTDd2 control, mean ± SEM, SEM. The procedure, abridged:
as §2

The next assay has as its target PfCRT^3D7 (Plasmodium falciparum, UniProt Q8IBZ9). The assay can be described thus: cell-based. Particulars: PfCRT3D7 oocytes, normalised to oocyte type control. The procedure, abridged:
as §2

Setting [5] is: [test solute]i = 5 mM (intracellular).
The mark [6] stands for this setting: [test solute]i = 45 mM (intracellular; 30 mM for some solutes due to solubility).
Setting [7] is: [test solute]i = 5 mM (injected).
Where [8] appears, read: [test solute]i = 45 mM (30 mM for some solutes due to solubility).

T1 sequence (Q9N623 whole entry A220S/I356T/K76T/M74I/N326S/N75E/Q271E/R371I): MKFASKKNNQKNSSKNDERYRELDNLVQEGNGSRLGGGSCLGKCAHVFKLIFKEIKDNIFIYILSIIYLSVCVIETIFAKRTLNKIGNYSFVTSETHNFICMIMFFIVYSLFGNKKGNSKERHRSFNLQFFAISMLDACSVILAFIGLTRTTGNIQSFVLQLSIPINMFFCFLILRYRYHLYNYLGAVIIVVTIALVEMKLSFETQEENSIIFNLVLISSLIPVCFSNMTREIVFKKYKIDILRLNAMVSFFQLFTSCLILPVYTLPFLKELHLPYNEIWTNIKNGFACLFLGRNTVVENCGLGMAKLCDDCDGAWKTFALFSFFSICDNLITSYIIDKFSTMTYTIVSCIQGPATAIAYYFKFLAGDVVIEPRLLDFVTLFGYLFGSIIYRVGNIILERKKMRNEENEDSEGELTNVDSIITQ
T2 sequence (Q9N623 whole entry A220S/I356L/K76T/N326D): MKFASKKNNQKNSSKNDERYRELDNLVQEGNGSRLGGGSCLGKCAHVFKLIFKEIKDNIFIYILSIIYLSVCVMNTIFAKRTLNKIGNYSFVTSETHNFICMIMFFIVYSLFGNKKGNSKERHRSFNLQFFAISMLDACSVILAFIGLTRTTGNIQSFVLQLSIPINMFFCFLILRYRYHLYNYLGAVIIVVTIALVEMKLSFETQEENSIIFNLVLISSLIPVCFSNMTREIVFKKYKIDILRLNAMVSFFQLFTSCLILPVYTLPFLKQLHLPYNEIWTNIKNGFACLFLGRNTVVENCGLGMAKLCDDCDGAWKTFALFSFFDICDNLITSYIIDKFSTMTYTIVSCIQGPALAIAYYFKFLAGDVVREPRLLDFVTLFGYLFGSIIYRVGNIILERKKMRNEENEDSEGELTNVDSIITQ
PfCRT^3D7, sequence (Q8IBZ9 59-398): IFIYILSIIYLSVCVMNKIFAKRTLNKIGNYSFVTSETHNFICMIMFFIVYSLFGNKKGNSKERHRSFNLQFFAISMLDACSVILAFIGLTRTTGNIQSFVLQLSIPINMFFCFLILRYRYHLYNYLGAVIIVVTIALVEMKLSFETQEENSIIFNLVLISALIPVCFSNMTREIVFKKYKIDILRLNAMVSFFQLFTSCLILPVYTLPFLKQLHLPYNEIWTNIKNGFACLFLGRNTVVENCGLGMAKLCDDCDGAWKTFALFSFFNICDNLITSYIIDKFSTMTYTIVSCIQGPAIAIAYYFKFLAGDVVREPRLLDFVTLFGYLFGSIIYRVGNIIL

As for HVDDMPNA [HA-8], the “PfCRT-mediated [3H]CQ transport, cis-inhibition (% PfCRTDd2 control)” value at PfCRT^Dd2 [1] ([test solute] = 0.5 mM) is listed as 48 ± 3.1 % PfCRTDd2 control; at PfCRT^Dd2 [1] ([test solute] = 1 mM), 27 ± 0.4 % PfCRTDd2 control; on PfCRT^Dd2 [1] ([test solute] = 2 mM) it was 20 ± 1.3 % PfCRTDd2 control. The results for the “PfCRT-mediated [3H]CQ transport, cis-inhibition (% PfCRTEcu1110 control)” value on PfCRT^Ecu1110 [2] ([test solute] = 0.5 mM), at PfCRT^Ecu1110 [2] ([test solute] = 1 mM) and on PfCRT^Ecu1110 [2] ([test solute] = 2 mM) were 50 ± 2.1 % PfCRTEcu1110 control, 40 ± 2.5 % PfCRTEcu1110 control and 27 ± 1.4 % PfCRTEcu1110 control, respectively. Moreover, the results for the “PfCRT-mediated [3H]CQ transport, trans-stimulation (% PfCRTDd2 control)” value at PfCRT^Dd2 [3] (setting [5]) and on PfCRT^Dd2 [3] (setting [6]) were 96 ± 3.1 % PfCRTDd2 control and 96 ± 2.1 % PfCRTDd2 control, respectively. Moreover, the “PfCRT-mediated [3H]CQ transport, trans-stimulation (% PfCRTEcu1110 control)” value at PfCRT^Ecu1110 [4] (setting [5]) was determined as 95 ± 2.2 % PfCRTEcu1110 control; at PfCRT^Ecu1110 [4] (setting [6]), 99 ± 3.8 % PfCRTEcu1110 control. The “PfCRT-mediated [3H]CQ transport, trans-stimulation (% PfCRT3D7 control)” value on PfCRT^3D7 (setting [5]) turned out to be 99 ± 3.8 % PfCRT3D7 control; at PfCRT^3D7 (setting [6]), 97 ± 4.1 % PfCRT3D7 control.
As to HVDPEN [HN-6], the “PfCRT-mediated [3H]CQ transport, cis-inhibition (% PfCRTDd2 control)” value at PfCRT^Dd2 [1] ([test solute] = 0.5 mM) was determined as 21 ± 0.7 % PfCRTDd2 control; at PfCRT^Dd2 [1] ([test solute] = 1 mM), 15 ± 1.1 % PfCRTDd2 control; at PfCRT^Dd2 [1] ([test solute] = 2 mM), 7.3 ± 0.2 % PfCRTDd2 control. Further, the “PfCRT-mediated [3H]CQ transport, cis-inhibition (% PfCRTEcu1110 control)” value came to 61 ± 1.5 % PfCRTEcu1110 control at PfCRT^Ecu1110 [2] ([test solute] = 0.5 mM), 44 ± 3.1 % PfCRTEcu1110 control at PfCRT^Ecu1110 [2] ([test solute] = 1 mM) and 49 ± 2.4 % PfCRTEcu1110 control at PfCRT^Ecu1110 [2] ([test solute] = 2 mM). In addition, the “[3H]CQ transport (% PfCRTEcu1110 control), cis-inhibition, PfCRTEcu1110” value on PfCRT^Ecu1110 [2] ([test solute] = 0.5 mM) worked out at 19 ± 0.3 % PfCRTEcu1110 control; at PfCRT^Ecu1110 [2] ([test solute] = 1 mM), 14 ± 0.1 % PfCRTEcu1110 control; on PfCRT^Ecu1110 [2] ([test solute] = 2 mM), 15 ± 0.4 % PfCRTEcu1110 control. Besides, the “PfCRT-mediated [3H]CQ transport, trans-stimulation (% PfCRTDd2 control)” value on PfCRT^Dd2 [3] (setting [5]) is 100 ± 2.1 % PfCRTDd2 control; on PfCRT^Dd2 [3] (setting [6]), 113 ± 1.1 % PfCRTDd2 control. The “[3H]CQ transport (% PfCRTDd2 control), trans-stimulation, PfCRTDd2” value on PfCRT^Dd2 [3] (setting [7]) came to 100 ± 2.1 % PfCRTDd2 control; at PfCRT^Dd2 [3] (setting [8]) it was 113 ± 1.1 % PfCRTDd2 control. The “PfCRT-mediated [3H]CQ transport, trans-stimulation (% PfCRTEcu1110 control)” value on PfCRT^Ecu1110 [4] (setting [5]) turned out to be 117 ± 2.2 % PfCRTEcu1110 control; on PfCRT^Ecu1110 [4] (setting [6]), 136 ± 3.2 % PfCRTEcu1110 control. In addition, the “[3H]CQ transport (% PfCRTDd2 control), trans-stimulation, PfCRTEcu1110” value was 35 ± 1.3 % PfCRTEcu1110 control at PfCRT^Ecu1110 [4] (setting [7]) and 41 ± 1.6 % PfCRTEcu1110 control on PfCRT^Ecu1110 [4] (setting [8]). For the same substance, the “PfCRT-mediated [3H]CQ transport, trans-stimulation (% PfCRT3D7 control)” value on PfCRT^3D7 (setting [5]) turned out to be 148 ± 4.6 % PfCRT3D7 control; on PfCRT^3D7 (setting [6]) it was 193 ± 4.7 % PfCRT3D7 control.
